Experiment [1] has as its system interferon. The experiment is described as follows: Interferon induction in mice. Type of experiment: in vivo. The note with it: mouse serum. On the procedure:
One hour later blood samples are withdrawn from the first group. The samples are pooled then centrifuged. The serum is removed from the centrifuge tube, split into two portions, then placed in freezing vials and maintained at −70° C. until analysis. This procedure is repeated at 2 hours with the second group of mice and at 4 hours with the third group of mice. Samples are assayed as described above in connection with the analysis of interferon induction in human cells. The results are expressed in the table below as α/β reference units/mL based on the value obtained for a mouse MU-1-IF standard. Results are shown in the table below wherein results designated as “<” a certain number indicate that interferon was not detectable in amounts above the lower sensitivity level of the assay.

Experiment [2] concerns interferon-α. Nature of the experiment: Interferon-α induction in human cells, PBM. It counts as cell-based. The conditions noted are these: 24 hours.

Consider “4-Amino-α-butyl-1-(2-methylpropyl)-1H-imidazo[4,5-c]quinoline-2-methanol Hemihydrate [Example 60]”, for which the “Interferon induction in mice” value in experiment [1] (oral 0.3 mg/kg, 1 hr) is 120 Reference Units/mL; in experiment [1] (oral 0.3 mg/kg, 2 hr), 870 Reference Units/mL; in experiment [1] (oral 0.3 mg/kg, 4 hr), “≦56 Reference Units/mL”; in experiment [1] (oral 1 mg/kg, 1 hr) it was 290 Reference Units/mL; in experiment [1] (oral 1 mg/kg, 2 hr), 1500 Reference Units/mL; in experiment [1] (oral 1 mg/kg, 4 hr), 120 Reference Units/mL. Besides, the “Interferon induction in mice” value worked out at 380 Reference Units/mL in experiment [1] (oral 3 mg/kg, 1 hr); 870 Reference Units/mL in experiment [1] (oral 3 mg/kg, 2 hr); 290 Reference Units/mL in experiment [1] (oral 3 mg/kg, 4 hr); 870 Reference Units/mL in experiment [1] (oral 10 mg/kg, 1 hr); 3400 Reference Units/mL in experiment [1] (oral 10 mg/kg, 2 hr); 1100 Reference Units/mL in experiment [1] (oral 10 mg/kg, 4 hr). For the same compound, the Interferon-α induction in experiment [2] (dose concentration 0.10 μg/mL) is 1700 α Reference Units/mL; in experiment [2] (dose concentration 0.50 μg/mL) it was 430 α Reference Units/mL; in experiment [2] (dose concentration 1.0 μg/mL), 570 α Reference Units/mL; in experiment [2] (dose concentration 5.0 μg/mL) it was 570 α Reference Units/mL.
For “1-Butyl-2-methoxyethyl-1H-imidazo[4,5-c]quinolin-4-amine [Example 115]”, the “Interferon induction in mice” value in experiment [1] (oral 0.3 mg/kg, 1 hr) is listed as “˜380 Reference Units/mL”; in experiment [1] (oral 0.3 mg/kg, 2 hr), 2500 Reference Units/mL; in experiment [1] (oral 0.3 mg/kg, 4 hr), “˜360 Reference Units/mL”; in experiment [1] (oral 1 mg/kg, 1 hr), 1400 Reference Units/mL; in experiment [1] (oral 1 mg/kg, 2 hr), 2900 Reference Units/mL; in experiment [1] (oral 1 mg/kg, 4 hr), “˜310 Reference Units/mL”. Further, the “Interferon induction in mice” value in experiment [1] (oral 3 mg/kg, 1 hr) is given as 2200 Reference Units/mL; in experiment [1] (oral 3 mg/kg, 2 hr), 5300 Reference Units/mL; in experiment [1] (oral 3 mg/kg, 4 hr), “˜310 Reference Units/mL”; in experiment [1] (oral 10 mg/kg, 1 hr), 5600 Reference Units/mL; in experiment [1] (oral 10 mg/kg, 2 hr), 5300 Reference Units/mL; in experiment [1] (oral 10 mg/kg, 4 hr), 870 Reference Units/mL. In addition, the Interferon-α induction in experiment [2] (dose concentration 0.01 μg/mL) was 91 α Reference Units/mL; in experiment [2] (dose concentration 0.05 μg/mL), 96 α Reference Units/mL; in experiment [2] (dose concentration 0.10 μg/mL) it was 120 α Reference Units/mL; in experiment [2] (dose concentration 0.50 μg/mL) it was 190 α Reference Units/mL; in experiment [2] (dose concentration 1.0 μg/mL), 190 α Reference Units/mL; in experiment [2] (dose concentration 5.0 μg/mL), 240 α Reference Units/mL.
In the case of `CC(=O)OC(C)c1nc2c(N)nc3ccccc3c2n1CC(C)C.O` (stereo not drawn) [Example 69, 4-Amino-α-methyl-1-(2-methylpropyl)-1H-imidazo[4,5-c]quinoline-2-methyl Acetate Hydrate], the “Interferon induction in mice” value is listed as less than 150 Reference Units/mL in experiment [1] (oral 0.3 mg/kg, 1 hr); less than 150 Reference Units/mL in experiment [1] (oral 0.3 mg/kg, 2 hr); less than 150 Reference Units/mL in experiment [1] (oral 0.3 mg/kg, 4 hr); less than 150 Reference Units/mL in experiment [1] (oral 1 mg/kg, 1 hr); less than 150 Reference Units/mL in experiment [1] (oral 1 mg/kg, 2 hr); less than 150 Reference Units/mL in experiment [1] (oral 1 mg/kg, 4 hr). Further, the “Interferon induction in mice” value in experiment [1] (oral 3 mg/kg, 1 hr) is “≦270 Reference Units/mL”; in experiment [1] (oral 3 mg/kg, 2 hr), “≦150 Reference Units/mL”; in experiment [1] (oral 3 mg/kg, 4 hr), less than 150 Reference Units/mL; in experiment [1] (oral 10 mg/kg, 1 hr) it was 1000 Reference Units/mL; in experiment [1] (oral 10 mg/kg, 2 hr), 1000 Reference Units/mL; in experiment [1] (oral 10 mg/kg, 4 hr), “≦340 Reference Units/mL”. For the same compound, the Interferon-α induction in experiment [2] (dose concentration 0.01 μg/mL) is reported as <6.4 α Reference Units/mL; in experiment [2] (dose concentration 0.05 μg/mL), <6.4 α Reference Units/mL; in experiment [2] (dose concentration 0.10 μg/mL) it was 1000 α Reference Units/mL; in experiment [2] (dose concentration 0.50 μg/mL), 680 α Reference Units/mL; in experiment [2] (dose concentration 1.0 μg/mL), 390 α Reference Units/mL; in experiment [2] (dose concentration 5.0 μg/mL) it was 900 α Reference Units/mL.
In the case of `CCCCC(c1nc2c(N)nc3ccccc3c2n1CC(C)C)N1CCOCC1` (stereo not shown) [Example 62, 2-[1-(1-Morpholino)pentyl]1-1-(2-methylpropyl)-1H-imidazo[4,5-c]quinolin-4-amine], the “Interferon induction in mice” value is reported as less than 56 Reference Units/mL in experiment [1] (oral 0.3 mg/kg, 1 hr); less than 56 Reference Units/mL in experiment [1] (oral 0.3 mg/kg, 2 hr); less than 56 Reference Units/mL in experiment [1] (oral 0.3 mg/kg, 4 hr); less than 56 Reference Units/mL in experiment [1] (oral 1 mg/kg, 1 hr); 97 Reference Units/mL in experiment [1] (oral 1 mg/kg, 2 hr); less than 56 Reference Units/mL in experiment [1] (oral 1 mg/kg, 4 hr). Moreover, the “Interferon induction in mice” value in experiment [1] (oral 3 mg/kg, 1 hr) is 220 Reference Units/mL; in experiment [1] (oral 3 mg/kg, 2 hr), 870 Reference Units/mL; in experiment [1] (oral 3 mg/kg, 4 hr), 160 Reference Units/mL; in experiment [1] (oral 10 mg/kg, 1 hr) it was 380 Reference Units/mL; in experiment [1] (oral 10 mg/kg, 2 hr) it was 1100 Reference Units/mL; in experiment [1] (oral 10 mg/kg, 4 hr) it was 380 Reference Units/mL. Moreover, the Interferon-α induction in experiment [2] (dose concentration 0.10 μg/mL) is <5 α Reference Units/mL; in experiment [2] (dose concentration 0.50 μg/mL) it was <5 α Reference Units/mL; in experiment [2] (dose concentration 1.0 μg/mL) it was 31 α Reference Units/mL; in experiment [2] (dose concentration 5.0 μg/mL), 760 α Reference Units/mL.
As to “4-Amino-N-hydroxyethyl-N-methyl-1-phenylmethyl-1H-imidazo[4,5-c]quinoline-2-methanamine Hemihydrate [Example 30]”, the “Interferon induction in mice” value in experiment [1] (oral 0.3 mg/kg, 1 hr) was less than 120 Reference Units/mL; in experiment [1] (oral 0.3 mg/kg, 2 hr), less than 120 Reference Units/mL; in experiment [1] (oral 0.3 mg/kg, 4 hr), less than 120 Reference Units/mL; in experiment [1] (oral 1 mg/kg, 1 hr) it was less than 120 Reference Units/mL; in experiment [1] (oral 1 mg/kg, 2 hr), less than 120 Reference Units/mL; in experiment [1] (oral 1 mg/kg, 4 hr), less than 120 Reference Units/mL. Also, the “Interferon induction in mice” value in experiment [1] (oral 3 mg/kg, 1 hr) is recorded as less than 120 Reference Units/mL; in experiment [1] (oral 3 mg/kg, 2 hr), less than 120 Reference Units/mL; in experiment [1] (oral 3 mg/kg, 4 hr), less than 120 Reference Units/mL; in experiment [1] (oral 10 mg/kg, 1 hr), less than 120 Reference Units/mL; in experiment [1] (oral 10 mg/kg, 2 hr), 600 Reference Units/mL; in experiment [1] (oral 10 mg/kg, 4 hr) it was less than 120 Reference Units/mL. For the same compound, the Interferon-α induction in experiment [2] (dose concentration 0.10 μg/mL) is recorded as <4 α Reference Units/mL; in experiment [2] (dose concentration 0.50 μg/mL) it was <4 α Reference Units/mL; in experiment [2] (dose concentration 1.0 μg/mL), <4 α Reference Units/mL; in experiment [2] (dose concentration 5.0 μg/mL), 72 α Reference Units/mL.
As for `Nc1nc2ccccc2c2c1nc(CN1CCOCC1)n2Cc1ccccc1` [Example 29, 2-Morpholinomethyl-1-phenylmethyl-1H-imidazo-[4,5-c]quinolin-4-amine], the “Interferon induction in mice” value in experiment [1] (oral 0.3 mg/kg, 1 hr) was less than 45 Reference Units/mL; in experiment [1] (oral 0.3 mg/kg, 2 hr), less than 45 Reference Units/mL; in experiment [1] (oral 0.3 mg/kg, 4 hr), less than 45 Reference Units/mL; in experiment [1] (oral 1 mg/kg, 1 hr), less than 45 Reference Units/mL; in experiment [1] (oral 1 mg/kg, 2 hr), less than 45 Reference Units/mL; in experiment [1] (oral 1 mg/kg, 4 hr) it was less than 45 Reference Units/mL. The “Interferon induction in mice” value is less than 45 Reference Units/mL in experiment [1] (oral 3 mg/kg, 1 hr); less than 45 Reference Units/mL in experiment [1] (oral 3 mg/kg, 2 hr); less than 45 Reference Units/mL in experiment [1] (oral 3 mg/kg, 4 hr); less than 45 Reference Units/mL in experiment [1] (oral 10 mg/kg, 1 hr); less than 45 Reference Units/mL in experiment [1] (oral 10 mg/kg, 2 hr); less than 45 Reference Units/mL in experiment [1] (oral 10 mg/kg, 4 hr). In addition, the Interferon-α induction was <5.4 α Reference Units/mL in experiment [2] (dose concentration 0.10 μg/mL), 440 α Reference Units/mL in experiment [2] (dose concentration 0.50 μg/mL), 1000 α Reference Units/mL in experiment [2] (dose concentration 1.0 μg/mL) and 580 α Reference Units/mL in experiment [2] (dose concentration 5.0 μg/mL).
As to `CCCCn1c(COCC)nc2c(N)nc3ccccc3c21` [Example 117, 1-Butyl-2-ethoxymethyl-1H-imidazo[4,5-c]quinolin-4-amine], the “Interferon induction in mice” value is less than 160 Reference Units/mL in experiment [1] (oral 0.3 mg/kg, 1 hr); 1200 Reference Units/mL in experiment [1] (oral 0.3 mg/kg, 2 hr); less than 160 Reference Units/mL in experiment [1] (oral 0.3 mg/kg, 4 hr); “≦270 Reference Units/mL” in experiment [1] (oral 1 mg/kg, 1 hr); 630 Reference Units/mL in experiment [1] (oral 1 mg/kg, 2 hr); “≦270 Reference Units/mL” in experiment [1] (oral 1 mg/kg, 4 hr). The “Interferon induction in mice” value in experiment [1] (oral 3 mg/kg, 1 hr) is listed as “˜820 Reference Units/mL”; in experiment [1] (oral 3 mg/kg, 2 hr), 2200 Reference Units/mL; in experiment [1] (oral 3 mg/kg, 4 hr), “˜310 Reference Units/mL”; in experiment [1] (oral 10 mg/kg, 1 hr), 1100 Reference Units/mL; in experiment [1] (oral 10 mg/kg, 2 hr), 480 Reference Units/mL; in experiment [1] (oral 10 mg/kg, 4 hr), “˜310 Reference Units/mL”. For the same compound, the Interferon-α induction in experiment [2] (dose concentration 0.01 μg/mL) is on record as <4.4 α Reference Units/mL; in experiment [2] (dose concentration 0.05 μg/mL), 360 α Reference Units/mL; in experiment [2] (dose concentration 0.10 μg/mL) it was 340 α Reference Units/mL; in experiment [2] (dose concentration 0.50 μg/mL) it was 140 α Reference Units/mL; in experiment [2] (dose concentration 1.0 μg/mL), 91 α Reference Units/mL; in experiment [2] (dose concentration 5.0 μg/mL), 110 α Reference Units/mL.

Values taken from patent US6465654B2, “Process for preparing 1-substituted, 2-substituted 1H-imidazo[4, 5-c]quinoline-4-amines” (3M Innovative Properties Company, priority 1991, dated 2002).
